Measured values reported in patent US20260078103A1, “ISOQUINOLONES AS PI3K INHIBITORS” (OnKure, Inc., priority 2022, published 2026).
Read-outs that look alike come from different tables or passages of the source.

Experiments:
[1] = test system: phosphorylation of AKT (pAKT) in SKBR3 cells express WT PI3Ka; test: In vitro cell pAKT (Ser473) HTRF, SKBR3 cells; format: cell-based
In short: (§1)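 T47D cells (RPMI, 10% FBS, 0.2 units/mL insulin) or SKBR3 cells (McCoy's 5a, 10% FBS) were seeded onto 10-point compound dilutions and incubated 6 h at 37 °C. After lysis, pAKT was detected overnight by HTRF (Eu cryptate/d2). IC50 was fitted from % inhibition relative to 0.1% DMSO and 10 uM alpelisib controls.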

[2] = Mouse pharmacokinetics, single IV or PO dose, plasma LC/MS/MS; format: in vivo; conditions: CD1 mice; for PK-Mouse: PO F: PO 10 mg/kg vs IV 1 mg/kg; for AUC(0-t) / clearance: mouse, plasma; for clearance: read-out: PK-Mouse: IV Cl
Method: CD1 mice were dosed with a single IV or PO dose, followed by serial sampling of plasma at 0.0833 (IV only), 0.25, 0.5, 1, 2, 4, 8, 24 hours post dose. Desired serial concentrations of working solutions were achieved by diluting stock solution of analyte with 50% acetonitrile in water solution.10 μL of working solutions […] were added to 10 μL of the blank Female CD1 Mouse plasma to achieve calibration standards of 0.5˜1000 ng/ml (0.5, 1, 2, 5, 10, 50, 100, 500, 1000 ng/ml) in a total volume of 20 μL. Five quality control samples at 1 ng/ml, 2 ng/ml, 5 ng/ml, 50 ng/ml and 800 ng/ml for plasma were prepared independently of those used for the calibration curves. These QC samples were prepared on the day of analysis in the same way as calibration standards. 20 μL standards, 20 μL QC samples and 20 μL unknown samples (10 μL plasma with 10 μL blank solution) were added to 200 μL of acetonitrile containing IS mixture for precipitating protein respectively. Then the samples were vortexed for 30 s. after centrifugation at 4° Celsius, 4000 rpm for 15 min. The supernatant was diluted with water at a ratio of 1:2 (V/V, 1:2), Then 5 μL of diluted supernatant was injected into the LC/MS/MS system for quantitative analysis.

[3] = test system: T47D cells expressing mutant PI3Ka (H1047R); test: In vitro cell proliferation, T47D cells (CellTiter-Glo); format: cell-based; conditions: inhibition of proliferation, read-out: Avg T-47D EC50
In short: (§2)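 T47D cells in RPMI/10% FBS/insulin (0.2 units/mL) or SKBR3 in McCoys 5a/10% FBS, 1,500 cells/well, grown 72 h at 37 °C with 10-point compound dilutions. CellTiter-Glo luminescence; % inhibition normalised to 0.1% DMSO and 10 uM Alpelisib, EC50 from four-parameter curve fit.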

[4] = test system: phosphorylation of AKT (pAKT) in T47D cells expressing mutant PI3Ka (H1047R); test: In vitro cell pAKT (Ser473) HTRF, T47D cells; format: cell-based
In short: as §1

[5] = test system: SKBR3 cells express WT PI3Ka; test: In vitro cell proliferation, SKBR3 cells (CellTiter-Glo); format: cell-based; conditions: inhibition of proliferation
In short: as §2

[6] = IV 1 mg/kg, 20% PEG400/20% PG/60% of 20% HPβCD solution in water, read-out: PK-Mouse: IV AUC last
[7] = IV 1 mg/kg, 20% PEG400/20% PG/60% of 20% HPβCD solution in water
[8] = PO 10 mg/kg, 30% SBEβCD in water, read-out: PK-Mouse PO AUC last
[9] = cellular pAKT, T47D cells, mutant PI3Ka (H1047R), 6 hours; read-out: Avg T-47D IC50
[10] = Homo sapiens, SK-BR-3, 6 h, cellular pAKT
[11] = Homo sapiens, T47D, 6 h, cellular pAKT, T47D cells, mutant PI3Ka (H1047R), 6 hours; read-out: Avg T-47D IC50

SMILES	IC50 ([1]; Homo sapiens, SK-BR-3, cellular pAKT, 6 hours)	PK-Mouse: PO F [2]	AUC(0-t) [2, 6]	clearance [2, 7]	AUC(0-t) [2, 8]	EC50 ([3]; 72 hours)	IC50 ([4]; read-out: Avg T-47D IC50; cellular pAKT, T47D cells, mutant PI3Ka (H1047R), 6 hours)	EC50 ([5]; 72 hours)	IC50 ([1]; cellular pAKT, 6 hours)	IC50 [4, 9]	IC50 [1, 10]	EC50 ([3]; Homo sapiens, T47D, 72 h)	IC50 [4, 11]	EC50 ([5]; Homo sapiens, SK-BR-3, 72 h)
Cc1cc(C(C)Nc2ccccc2C(=O)O)c2cc(N3CCC(C)(C)CC3)n(C)c(=O)c2c1 (single isomer, unassigned) [Example 1, 2-((1-(3-(4,4-dimethylpiperidin-1-yl)-2,7-dimethyl-1-oxo-1,2-dihydroisoquinolin-5-yl)ethyl)amino)benzoic acid]	> 15 µM	50%	3.06 µg·h/mL	0.342 L/h/kg	15.2 µg·h/mL	0.001 to 0.5 µM	0.001 to 0.5 µM	2 to 15 µM						
Cc1cc(C(C)Nc2ccccc2C(=O)O)c2cc(N3CCN(CC(F)(F)F)CC3)n(C)c(=O)c2c1 (single isomer, unassigned) [Example 8, 2-((1-(2,7-dimethyl-1-oxo-3-(4-(2,2,2-trifluoroethyl)piperazin-1-yl)-1,2-dihydroisoquinolin-5-yl)ethyl)amino)benzoic acid]		62%	1.44 µg·h/mL	0.702 L/h/kg	8.9 µg·h/mL	0.001 to 0.5 µM		2 to 15 µM	2 to 15 µM	0.001 to 0.5 µM				
Cc1cc(C(C)Nc2ccc(Cl)nc2C(=O)O)c2cc(C3=CCC(C)(C)CC3)n(C)c(=O)c2c1 (single isomer, unassigned) [Example 23, 6-chloro-3-((1-(3-(4,4-dimethylcyclohex-1-en-1-yl)-2,7-dimethyl-1-oxo-1,2-dihydroisoquinolin-5-yl)ethyl)amino)picolinic acid]		106%	0.683 µg·h/mL	1.48 L/h/kg	7.23 µg·h/mL	0.001 to 0.5 µM		2 to 15 µM	> 15 µM	0.5 to 2 µM				
C[C@@H](Nc1ccccc1C(=O)O)c1cc(F)cc2c(=O)n(C)c(C34CC(c5cnn(C(F)F)c5)(C3)C4)c(F)c12 [Example 580]											2 to 15 µM	0.001 to 0.5 µM	0.001 to 0.5 µM	2 to 15 µM
COc1ncc(-c2c(F)c3c([C@@H](C)Nc4ccccc4C(=O)O)cc(F)cc3c(=O)n2C)s1 [Example 581]											> 15 µM	0.001 to 0.5 µM	0.001 to 0.5 µM	> 15 µM
Cc1ncc(-c2c(F)c3c([C@@H](C)Nc4ccccc4C(=O)O)cc(F)cc3c(=O)n2C)s1 [Example 582]											> 15 µM	0.001 to 0.5 µM	0.001 to 0.5 µM	> 15 µM
